# Measured values from publication PMC12136442, “Cholesterol metabolism and intrabacterial potassium homeostasis are intrinsically related in Mycobacterium tuberculosis” (PLOS Pathogens, 2025).
# Experiments:
# CeoB [1] = molecular target: T1, CeoB (Mycobacterium tuberculosis, UniProt Q7D6R7)
# CeoB [2] = molecular target: T1, CeoB; remark: listed apart in the source
# MceG = molecular target: T2, MceG (Mycobacterium tuberculosis, UniProt P9WQL5)
# T2 construct: gene mkl
# T2 sequence (P9WQL5 whole entry): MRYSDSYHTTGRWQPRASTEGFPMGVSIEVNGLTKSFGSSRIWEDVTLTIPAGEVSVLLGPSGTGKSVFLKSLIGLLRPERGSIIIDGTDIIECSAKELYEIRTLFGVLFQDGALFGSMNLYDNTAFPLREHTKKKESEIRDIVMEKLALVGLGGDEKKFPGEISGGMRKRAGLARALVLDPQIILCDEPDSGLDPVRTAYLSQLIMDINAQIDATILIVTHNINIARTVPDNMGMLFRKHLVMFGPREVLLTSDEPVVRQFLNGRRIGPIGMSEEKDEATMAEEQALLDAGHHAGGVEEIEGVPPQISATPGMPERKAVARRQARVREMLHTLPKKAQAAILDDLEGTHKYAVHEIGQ
# T1 sequence (Q7D6R7 entry or part of it): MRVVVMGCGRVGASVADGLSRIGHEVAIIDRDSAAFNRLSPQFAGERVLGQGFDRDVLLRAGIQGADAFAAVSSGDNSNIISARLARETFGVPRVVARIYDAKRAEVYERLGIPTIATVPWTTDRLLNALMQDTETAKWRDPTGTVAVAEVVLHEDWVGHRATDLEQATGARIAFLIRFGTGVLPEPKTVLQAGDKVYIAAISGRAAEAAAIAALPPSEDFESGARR
compound,measurement,setting,value
CC(C)CCC[C@@H](C)[C@H]1CC[C@H]2[C@@H]3CC=C4C[C@@H](O)CC[C@]4(C)[C@H]3CC[C@]12C [cholesterol],band intensity at 65oC/50oC,CeoB [1],the presence of cholesterol resulted in an increase in CeoB thermostability
"CC(C)[C@@H](C)/C=C/[C@@H](C)[C@H]1CC[C@H]2C3=CC=C4C[C@@H](O)CC[C@]4(C)C3=CC[C@]12C [dehydroergosterol, ergosta-5,7,9(11),22-tetraen-3β-ol]","DHE fluorescence increase (ex 338 nm, em 381 nm)",CeoB [2],incubation of CeoB with DHE resulted in significantly higher DHE fluorescence signal
Nc1ncnc2c1ncn2[C@@H]1O[C@H](COP(=O)(O)OP(=O)(O)OP(=O)(O)O)[C@@H](O)[C@H]1O [ATP],ADP-Glo kinase assay (luminescence),MceG,purified MceG exhibited ATPase activity
